This note sets out measurements from ChEMBL document CHEMBL6109176, “Drug-like Antagonists of P2Y Receptor Subtypes: An Update” (J Med Chem, 2025).

Molecules are shown by their SMILES.

The target of experiment [1] is T1, P2Y purinoceptor 12 (Homo sapiens, UniProt Q9H244). Nature of the experiment: Inhibition of P2Y12R (unknown origin) by HTS assay.
A short description of experiment [2]: Antagonist activity at P2Y14R (unknown origin). Further details: species or system Homo sapiens.
The target of experiment [3] is T1, P2Y purinoceptor 12. Nature of the experiment: Antagonist activity at P2Y12R (unknown origin).
Experiment [4] addresses T2, P2Y purinoceptor 1 (Homo sapiens, UniProt P47900). The experiment in a line: inhibition of P2Y1R (unknown origin).
In experiment [5] the target is T2, P2Y purinoceptor 1. The experiment in a line: Binding affinity yo human P2Y1R extracted from baculovirus infected Sf9 cells assessed as inhibition constant incubated for 30 mins.
The target of another experiment is T3, P2Y purinoceptor 14 (Homo sapiens, UniProt Q15391).
T3 sequence (Q15391 whole entry): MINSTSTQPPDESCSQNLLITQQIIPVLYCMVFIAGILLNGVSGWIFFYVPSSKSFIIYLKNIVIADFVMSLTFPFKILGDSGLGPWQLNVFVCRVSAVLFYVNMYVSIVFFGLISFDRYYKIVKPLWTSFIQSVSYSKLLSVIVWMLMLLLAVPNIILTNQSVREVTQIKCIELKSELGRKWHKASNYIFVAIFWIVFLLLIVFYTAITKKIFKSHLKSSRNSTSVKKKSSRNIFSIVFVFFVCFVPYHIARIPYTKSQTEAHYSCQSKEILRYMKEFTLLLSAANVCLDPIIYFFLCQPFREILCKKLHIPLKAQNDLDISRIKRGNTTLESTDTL
The experiment in a line: Binding affinity to P2Y14R (unknown origin) expressed in CHO cells assessed as inhibition constant. It is filed as cell-based.

Experiment [6] deals with T1, P2Y purinoceptor 12. The experiment in a line: Binding affinity to human P2Y12R expressed in CHO cells assessed as dissociation constant SPR assay.
A short description of experiment [7]: Inhibition of platelet aggregation in human platelet rich plasma preincubated for 5 mins followed by aggregation inducer addition and measured after 5 mins by light transmission aggregation method. The experiment is classed as functional.
The next experiment concerns the target P2Y purinoceptor 2 (Homo sapiens, UniProt P41231). The experiment in a line: Antagonist activity at human P2Y2R stably expressed in 1321N1 cells assessed as UTP-induced Ca2+ accumulation preincubated with compound for 30 mins followed by UTP addition by […]. It is filed as functional, cell-based. On the technique in general: ELISA stands for enzyme-linked immunosorbent assay.

T2 sequence (P47900 whole entry): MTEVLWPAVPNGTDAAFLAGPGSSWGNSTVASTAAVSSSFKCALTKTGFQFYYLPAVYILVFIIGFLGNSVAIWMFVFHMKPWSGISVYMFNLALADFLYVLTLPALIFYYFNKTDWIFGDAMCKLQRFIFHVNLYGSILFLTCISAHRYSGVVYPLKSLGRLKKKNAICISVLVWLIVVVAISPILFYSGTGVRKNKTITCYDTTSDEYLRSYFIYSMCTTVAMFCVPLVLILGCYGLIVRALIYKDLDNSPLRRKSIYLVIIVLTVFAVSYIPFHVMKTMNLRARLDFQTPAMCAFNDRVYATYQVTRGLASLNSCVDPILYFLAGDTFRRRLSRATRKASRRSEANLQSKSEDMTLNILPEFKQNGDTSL
T1 sequence (Q9H244 whole entry): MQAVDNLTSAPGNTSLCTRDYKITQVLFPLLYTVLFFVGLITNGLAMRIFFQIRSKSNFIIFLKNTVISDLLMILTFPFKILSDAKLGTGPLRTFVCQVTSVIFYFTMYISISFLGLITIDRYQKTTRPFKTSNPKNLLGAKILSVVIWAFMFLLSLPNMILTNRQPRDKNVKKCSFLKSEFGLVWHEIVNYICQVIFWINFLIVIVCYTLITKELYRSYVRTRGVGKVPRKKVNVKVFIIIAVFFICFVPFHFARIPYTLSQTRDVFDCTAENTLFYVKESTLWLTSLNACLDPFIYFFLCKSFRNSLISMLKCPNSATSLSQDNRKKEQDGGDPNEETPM
P2Y purinoceptor 2, sequence (P41231 whole entry): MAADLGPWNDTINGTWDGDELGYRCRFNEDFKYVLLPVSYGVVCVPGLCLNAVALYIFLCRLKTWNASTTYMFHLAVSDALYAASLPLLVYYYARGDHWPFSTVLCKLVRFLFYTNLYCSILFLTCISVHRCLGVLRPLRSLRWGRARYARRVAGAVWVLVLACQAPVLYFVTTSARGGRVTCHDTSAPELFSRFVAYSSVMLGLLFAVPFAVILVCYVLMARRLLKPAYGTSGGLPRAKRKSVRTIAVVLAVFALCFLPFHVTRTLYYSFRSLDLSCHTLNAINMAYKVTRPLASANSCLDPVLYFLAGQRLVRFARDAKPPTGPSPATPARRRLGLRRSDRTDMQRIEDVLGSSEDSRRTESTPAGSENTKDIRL

As to `CCOC(=O)N1CCN(C(=O)[C@H](CCC(=O)O)NC(=O)c2cc(OC(C)(C)C(=O)OCC)c3ccc(C)cc3n2)CC1`, at P2Y purinoceptor 12 [1], the IC50 (in general, the concentration at which inhibition is half-maximal) came to 97 nM. Take `O=C(O)c1cc(-c2ccc(C3CCN(CCc4cn([C@@H]5O[C@H](CO)[C@@H](O)[C@H](O)[C@H]5O)nn4)CC3)cc2)c2ccc(-c3ccc(C(F)(F)F)cc3)cc2c1`: half-maximal inhibition in experiment [2] (IC50) was put at 2.4 nM. The same measure, in the same setting: the result for `CC(NC(=O)C(C)c1ccc(-c2ccccc2)c(F)c1)C(=O)O` (stereo not drawn) reads 5.12 nM.

`CNc1cc2[nH]c(=O)n(-c3ccc(NC(=O)NS(=O)(=O)c4ccc(Cl)s4)cc3)c(=O)c2cc1F` [ELINOGREL] registered an IC50 at P2Y purinoceptor 12 [3] of under 10000 nM. Compound `Cc1nc(/N=N/c2cc([N+](=O)[O-])ccc2Cl)c(COP(=O)(O)O)c(C=O)c1O` came in with an IC50 on P2Y purinoceptor 1 [4] of 1100 nM. For the compound `CNc1nc(I)nc2c1ncn2[C@H]1C[C@H](OP(=O)(O)O)[C@]2(COP(=O)(O)O)C[C@H]12`, at P2Y purinoceptor 1 [5], the Ki (usually the dissociation constant of the complex between target and ligand, obtained from inhibition or displacement) is 0.79 nM. The compound `Cc1nc(/N=N/c2ccc(Cl)c([N+](=O)[O-])c2)c(COP(=O)(O)O)c(C=O)c1O` displayed an IC50 at P2Y purinoceptor 1 [4] of 660 nM. Consider `N=C1C=CC2=C(c3ccc(C(=O)NCCCCCCn4cc(CCCCN5CCC(c6ccc(-c7cc(C(=O)O)cc8cc(-c9ccc(C(F)(F)F)cc9)ccc78)cc6)CC5)nn4)cc3C(=O)O)C3C=CC(N)=C(S(=O)(=O)O)C3OC2C1S(=O)(=O)O` (stereo not drawn), for which the Ki on P2Y purinoceptor 14 was found to be 0.08 nM.

Regarding `CCCCOC(=O)N1CCN(C(=O)[C@H](CP(=O)(O)O)NC(=O)c2cc(N3CC[C@H](OC)C3)nc(-c3ccccc3)n2)CC1` [SELATOGREL], the Kd (as a rule, the free concentration of one partner at which half of the binding sites on the other are occupied at equilibrium, for simple one-to-one binding) at P2Y purinoceptor 12 [6] is 1.5 nM. In addition, the IC50 in experiment [7] was found to be 14 nM.

`O=C(O)c1cc(-c2ccc(-c3cn([C@@H]4O[C@H](CO)[C@@H](O)[C@H](O)[C@H]4O)nn3)cc2)c2ccc(-c3ccc(C(F)(F)F)cc3)cc2c1`: the IC50 in experiment [2] amounted to 12.8 nM. At P2Y purinoceptor 12 [1], `CCOC(=O)N1CCN(C(=O)[C@H](CCC(=O)O)NC(=O)c2cc(OC(C)(C)C(=O)O)c3ccc(C)cc3n2)CC1` displayed an IC50 of 290 nM. Regarding `Cc1cc(O)c(C2=Nc3cc(C(F)(F)F)ccc3SC(c3cccc(O)c3)C2)c(=O)o1` (stereo not drawn), the IC50 on P2Y purinoceptor 2 turned out to be 10900 nM.
